In patent US11091479B2, “Triazolopyridin-3-ones or their salts and pharmaceutical compositions comprising the same” (YUHAN CORPORATION, priority 2018, dated 2021):
Structures can show the parent of a compound that is named as a salt.

Key:
Type in all cases: biochemical
[1] = target: T1, recombinant human DAO (diamine oxidase) (Homo sapiens, UniProt P19801); assay: Activity on recombinant human DAO, method similar to VAP-1 assay, 1 mM putrescine substrate; settings: read-out: Inhibitory Activity (IC50, nM) DAO
T1 construct: purchased R&D systems
T1 sequence (P19801 20-751): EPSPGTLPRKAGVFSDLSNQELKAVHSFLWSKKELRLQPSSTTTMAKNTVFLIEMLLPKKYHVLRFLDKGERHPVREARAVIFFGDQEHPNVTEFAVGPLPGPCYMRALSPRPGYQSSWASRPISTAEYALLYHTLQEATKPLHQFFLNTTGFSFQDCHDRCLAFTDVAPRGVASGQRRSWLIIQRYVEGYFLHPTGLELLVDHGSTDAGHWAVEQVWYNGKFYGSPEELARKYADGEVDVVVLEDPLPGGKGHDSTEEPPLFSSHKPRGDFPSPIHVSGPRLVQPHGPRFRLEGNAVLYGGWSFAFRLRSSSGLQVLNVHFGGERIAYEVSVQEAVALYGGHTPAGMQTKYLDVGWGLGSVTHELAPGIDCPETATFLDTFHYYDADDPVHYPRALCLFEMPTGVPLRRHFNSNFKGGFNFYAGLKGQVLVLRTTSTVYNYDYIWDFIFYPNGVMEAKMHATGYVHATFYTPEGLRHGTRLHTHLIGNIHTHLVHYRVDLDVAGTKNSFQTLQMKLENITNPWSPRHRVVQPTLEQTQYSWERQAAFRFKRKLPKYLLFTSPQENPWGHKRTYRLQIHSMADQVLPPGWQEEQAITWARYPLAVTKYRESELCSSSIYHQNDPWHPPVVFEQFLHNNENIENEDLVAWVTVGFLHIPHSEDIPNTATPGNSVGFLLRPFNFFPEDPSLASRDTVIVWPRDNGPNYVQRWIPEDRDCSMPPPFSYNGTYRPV
Method: (§1) The compounds according to the present technology were evaluated in terms of activity on recombinant human VAP-1 (R&D systems) by measuring the level of hydrogen peroxide in horseradish peroxidase (HRP)-coupled reaction using Amplex Red Hydrogen Peroxide Assay Kit (Molecular Probes, Invitrogen, USA). The experiment was carried out at room temperature using benzylamine as a substrate. In the HRP-coupled reaction, hydrogen peroxide oxidation of 10-acetyl-3,7-dihydroxyphenoxazine (Amplex Red reagent) produces resorufin, which is a highly fluorescent compound. Briefly, the test compound was dissolved in dimethyl sulfoxide (DMSO) at a concentration of 20 mM. The dose-response assessment was made by 1:3 serial dilution in DMSO, thereby creating a 8 point curve. The concentration of the upper part was controlled according to the efficacy of the compounds, followed by dilution with a reaction buffer solution to obtain a final DMSO concentration of less than 1%. To each well of a 96 black well plate, human VAP-1 purified in 50 mM sodium phosphate buffer solution (pH7.4) was added. The test compounds dissolved in DMSO were incubated with the human VAP-1 enzymes at 37° C. for 30 minutes. After 30-minute incubation, each well was added with a reaction mixture containing 200 uM Amplex Red reagent prepared from 50 mM sodium phosphate buffer solution (pH 7.4), 1 mM benzylamine, and 1 U/mL HRP. Fluorescence intensity was measured at several time points during 1-2 hours using a microplate reader (Flexstation3, Molecular Devices) under the wavelength condition exciting at 544 nm and reading the emission at 590 nm. The inhibitory effect of the compounds was measured as a decrease (%) in the signal rate as compared to the control group without any inhibitor (only diluted DMSO). Data was fixed to a logistic model with four variables and IC50 value was calculated using GraphPad Prism program.
(§2) In addition, the compounds according to the present technology were evaluated in terms of activity on a recombinant human MAO-A (monoamine oxidase-A, Sigma-Aldrich) and a recombinant human MAO-B(monoamine oxidase-B, Sigma-Aldrich) by using as substrates, 0.5 mM tyramine and 1 mM benzylamine, respectively, with a method similar to the activity evaluation method for recombinant human VAP-1. The compounds according to the present technology were also evaluated in terms of activity on a recombinant human DAO (diamine oxidase, R&D systems) by using as a substrate 1 mM putrescine with a method similar to the activity evaluation method for recombinant human VAP-1.

[2] = target: T2, recombinant human MAO-B (monoamine oxidase-B) (Homo sapiens, UniProt P27338); assay: Activity on recombinant human MAO-B, method similar to VAP-1 assay, 1 mM benzylamine substrate; settings: read-out: Inhibitory Activity (IC50, nM) MAO-B
T2 construct: purchased Sigma-Aldrich
T2 sequence (P27338 1-520): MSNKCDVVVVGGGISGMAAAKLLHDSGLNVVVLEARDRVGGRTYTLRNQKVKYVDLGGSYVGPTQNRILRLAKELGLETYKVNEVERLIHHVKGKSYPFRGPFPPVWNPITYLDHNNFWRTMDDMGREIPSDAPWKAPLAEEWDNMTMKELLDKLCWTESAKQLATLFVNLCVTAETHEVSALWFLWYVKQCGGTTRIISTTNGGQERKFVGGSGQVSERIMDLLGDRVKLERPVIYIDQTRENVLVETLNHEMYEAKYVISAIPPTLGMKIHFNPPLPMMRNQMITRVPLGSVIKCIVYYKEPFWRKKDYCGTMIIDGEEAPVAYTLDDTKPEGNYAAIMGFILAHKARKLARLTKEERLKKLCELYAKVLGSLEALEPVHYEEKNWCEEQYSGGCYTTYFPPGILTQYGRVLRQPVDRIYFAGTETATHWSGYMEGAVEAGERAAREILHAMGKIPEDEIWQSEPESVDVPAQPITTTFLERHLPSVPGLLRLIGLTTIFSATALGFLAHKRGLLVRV
Method: as §1, §2

[3] = target: T3, recombinant human MAO-A (monoamine oxidase-A) (Homo sapiens, UniProt P21397); assay: Activity on recombinant human MAO-A, method similar to VAP-1 assay, 0.5 mM tyramine substrate; settings: read-out: Inhibitory Activity (IC50, nM) MAO-A
T3 construct: purchased Sigma-Aldrich
T3 sequence (P21397 1-527): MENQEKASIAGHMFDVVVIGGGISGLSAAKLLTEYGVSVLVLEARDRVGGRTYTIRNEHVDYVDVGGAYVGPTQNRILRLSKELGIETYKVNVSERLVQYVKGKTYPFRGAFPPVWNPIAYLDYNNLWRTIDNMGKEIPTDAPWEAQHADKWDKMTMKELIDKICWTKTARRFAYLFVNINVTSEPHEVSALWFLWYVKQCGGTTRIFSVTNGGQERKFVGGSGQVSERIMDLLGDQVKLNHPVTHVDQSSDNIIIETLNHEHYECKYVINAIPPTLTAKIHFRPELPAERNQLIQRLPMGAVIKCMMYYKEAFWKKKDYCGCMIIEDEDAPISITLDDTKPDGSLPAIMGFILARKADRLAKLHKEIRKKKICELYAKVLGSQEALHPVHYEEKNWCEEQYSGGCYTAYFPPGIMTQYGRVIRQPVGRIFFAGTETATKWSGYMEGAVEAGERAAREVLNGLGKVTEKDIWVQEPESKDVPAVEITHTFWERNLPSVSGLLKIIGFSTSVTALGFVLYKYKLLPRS
Method: as §1, §2

[4] = target: T4, recombinant human VAP-1 (Homo sapiens, UniProt Q16853); assay: Activity on recombinant human VAP-1, HRP-coupled Amplex Red hydrogen peroxide assay, benzylamine substrate; settings: 30 min incubation at 37° C., 1 mM benzylamine, read-out: Inhibitory Activity (IC50, nM) human VAP-1
T4 construct: purchased R&D systems
T4 sequence (Q16853 1-763): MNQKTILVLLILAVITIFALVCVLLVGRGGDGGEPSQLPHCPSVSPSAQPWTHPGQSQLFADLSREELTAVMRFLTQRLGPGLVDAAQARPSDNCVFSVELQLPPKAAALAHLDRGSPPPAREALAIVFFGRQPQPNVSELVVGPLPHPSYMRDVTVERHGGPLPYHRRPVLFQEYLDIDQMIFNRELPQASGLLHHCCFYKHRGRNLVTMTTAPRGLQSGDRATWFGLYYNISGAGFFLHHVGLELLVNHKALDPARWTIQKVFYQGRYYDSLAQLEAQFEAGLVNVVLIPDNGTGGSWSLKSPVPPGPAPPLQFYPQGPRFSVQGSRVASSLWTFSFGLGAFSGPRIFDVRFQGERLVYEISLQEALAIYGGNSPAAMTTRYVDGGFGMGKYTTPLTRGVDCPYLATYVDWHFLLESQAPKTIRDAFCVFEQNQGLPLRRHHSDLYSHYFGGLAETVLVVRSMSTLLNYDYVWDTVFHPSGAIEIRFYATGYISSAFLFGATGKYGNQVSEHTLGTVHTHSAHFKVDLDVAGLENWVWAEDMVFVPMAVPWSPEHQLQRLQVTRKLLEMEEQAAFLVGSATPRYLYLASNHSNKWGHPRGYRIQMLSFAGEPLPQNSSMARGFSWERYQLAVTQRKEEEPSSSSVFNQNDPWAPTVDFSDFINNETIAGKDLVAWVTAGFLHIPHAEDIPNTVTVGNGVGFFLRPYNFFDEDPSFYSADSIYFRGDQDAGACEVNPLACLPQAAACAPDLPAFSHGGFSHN
Method: as §1

Structure (SMILES) | IC50 [1] [nM] | IC50 [2] [nM] | IC50 [3] [nM] | IC50 [4] [nM]
NC/C(=C\F)Cn1nc2ccc(-c3cccc(-c4nc[nH]n4)c3)cn2c1=O [Example 6, 2-[(2E)-2-(aminomethyl)-3-fluoroprop-2-en-1-yl]-6-[3-(1H-1,2,4-triazol-3-yl)phenyl][1,2,4]triazolo[4,3-a]pyridin-3(2H)-one] | < 100 | 73 | > 100000 | 2.1
NC/C(=C\F)Cn1nc2ccc(-c3ccc(-c4ccon4)cc3)cn2c1=O [Example 7, 2-[(2E)-2-(aminomethyl)-3-fluoroprop-2-en-1-yl]-6-[4-(1,2-oxazol-3-yl)phenyl][1,2,4]triazolo[4,3-a]pyridin-3(2H)-one hydrochloride] | 0.2 | 25 | > 100000 | 2.3
NC/C(=C\F)Cn1nc2ccc(-c3ccc(C(F)(F)F)nc3)cn2c1=O [Example 9, 2-[(2E)-2-(aminomethyl)-3-fluoroprop-2-en-1-yl]-6-[6-(trifluoromethyl)pyridin-3-yl][1,2,4]triazolo[4,3-a]pyridin-3(2H)-one hydrochloride] | 0.2 | 37 | > 100000 | 12
NC/C(=C\F)Cn1nc2ccc(-c3ccc(N4CCOCC4)nc3)cn2c1=O [Example 10, 2-[(2E)-2-(aminomethyl)-3-fluoroprop-2-en-1-yl]-6-[6-(morpholin-4-yl)pyridin-3-yl][1,2,4]triazolo[4,3-a]pyridin-3(2H)-one trifluoroacetate] | < 100 | 64 | > 100000 | 6.6
NC/C(=C\F)Cn1nc2ccc(-c3ccc4c(c3)OCO4)cn2c1=O [Example 12, 2-[(2E)-2-(aminomethyl)-3-fluoroprop-2-en-1-yl]-6-(1,3-benzodioxol-5-yl)[1,2,4]triazolo[4,3-a]pyridin-3(2H)-one hydrochloride] | 1.1 | < 10 | 14000 | 3.4
NC/C(=C\F)Cn1nc2ccc(-c3ccc4c(c3)OCCO4)cn2c1=O [Example 13, 2-[(2E)-2-(aminomethyl)-3-fluoroprop-2-en-1-yl]-6-(2,3-dihydro-1,4-benzodioxin-6-yl)[1,2,4]triazolo[4,3-a]pyridin-3(2H)-one trifluoroacetate] | < 100 | 15 | > 100000 | 4.8
NC/C(=C\F)Cn1nc2ccc(-c3ccc4sc(N)nc4c3)cn2c1=O [Example 14, 6-(2-amino-1,3-benzothiazol-5-yl)-2-[(2E)-2-(aminomethyl)-3-fluoroprop-2-en-1-yl][1,2,4]triazolo[4,3-a]pyridin-3(2H)-one trifluoroacetate] | < 100 | 69 | > 100000 | 6.2
CC(=O)Nc1nc2cc(-c3ccc4nn(C/C(=C/F)CN)c(=O)n4c3)ccc2s1 [Example 15, N-[5-[2-[(2E)-2-(aminomethyl)-3-fluoroprop-2-en-1-yl]-3-oxo-2,3-dihydro[1,2,4]triazolo[4,3-a]pyridin-6-yl]-1,3-benzothiazol-2-yl]acetamide trifluoroacetate] | < 100 | 597 | > 100000 | 9.3
NC/C(=C\F)Cn1nc2ccc(-c3ccc4nonc4c3)cn2c1=O [Example 16, 2-[(2E)-2-(aminomethyl)-3-fluoroprop-2-en-1-yl]-6-(2,1,3-benzoxadiazol-5-yl)[1,2,4]triazolo[4,3-a]pyridin-3(2H)-one trifluoroacetate] | < 100 | 52 | 10200 | 4.5
Cc1cc(-c2ccc3nn(C/C(=C/F)CN)c(=O)n3c2)cc2c1NC(=O)CC2 [Example 17, 6-[2-[(2E)-2-(aminomethyl)-3-fluoroprop-2-en-1-yl]-3-oxo-2,3-dihydro[1,2,4]triazolo[4,3-a]pyridin-6-yl]-8-methyl-3,4-dihydroquinolin-2(1H)-one hydrochloride] | 0.3 | 290 | > 100000 | 0.6
CS(=O)(=O)c1cccc(-c2ccn3c(=O)n(C/C(=C/F)CN)nc3c2)c1 [Example 22, 2-[(2E)-2-(aminomethyl)-3-fluoroprop-2-en-1-yl]-7-[3-(methylsulfonyl)phenyl][1,2,4]triazolo[4,3-a]pyridin-3(2H)-one hydrochloride] | 12 | 180 | > 100000 | 0.7
